What was measured:
[1] = tested on: OVCA429 OVCA cell line; assay: CellTiter-Blue cell viability assay, OVCA429; type: cell-based; details: Homo sapiens; OVCA429 cells, 72 hours, growth/viability
Excerpt: (§1) OVCA cell lines were obtained from the American Type Culture Collection (Manassas, Va.; CAOV3, OV90, OVCAR3, SKOV3), from the European Collection of Cell Cultures (Salisbury, UK; A2780CP, A2780S), from Kyoto University (Kyoto, Japan; CHI, CHIcisR, M41, M41CSR, Tyknu, and TyknuCisR), or as kind gifts (A2008, C13, CAOV2, HeyA8, IGR-OV1, IMCC3, IMCC5, MCAS, OV2008, OVCA420, OVCA429, OVCA432, OVCA433, FUOV1, PEO1, PEO4, SK-OV-6, T8, TOV-112D, TOV-21-G, Dov13, BG1, Ovary1847, OVCAR10, OVCAR8, OVCAR5, OVCAR4, OVCAR2, SK-OV-4). Cell lines were maintained in RPMI 1640 medium (Invitrogen, Carlsbad, Calif.) supplemented with 10% fetal bovine serum (Fisher Scientific, Pittsburgh, Pa.), 1% sodium pyruvate, 1% penicillin/streptomycin (Cellgro, Manassas, Va.), and 1% nonessential amino acids (HyClone, Hudson, N.H.). Mycoplasma testing was performed every 6 months, in accordance with the manufacturer's protocol (Lonza, Rockland, Me.).
(§2) Drug activity was evaluated using a high-throughput CellTiter-Blue® cell viability assay. […] Fluorescence was read at 579-nm excitation/584-nm emission using a Synergy™ 4 microplate reader (Bio-Tek Instruments, Inc., Winooski, Vt.). IC50 values were determined using a sigmoidal equilibrium model fit (XLfit 5.2, ID Business Solutions Ltd.). […]

[2] = tested on: A2780S OVCA cell line; assay: CellTiter-Blue cell viability assay, A2780S; type: cell-based; details: Homo sapiens; A2780S cells, 72 hours, growth/viability
Excerpt: as §1, §2

[3] = tested on: SK-OV-3 OVCA cell line; assay: CellTiter-Blue cell viability assay, SK-OV-3; type: cell-based; details: Homo sapiens; SK-OV-3 cells, 72 hours, growth/viability
Excerpt: as §1, §2

[4] = tested on: OVCAR8 OVCA cell line; assay: CellTiter-Blue cell viability assay, OVCAR8; type: cell-based; details: Homo sapiens, OVCAR-8; OVCAR8 cells, 72 hours, growth/viability
Excerpt: as §1, §2

[5] = tested on: TyknuCisR OVCA cell line; assay: CellTiter-Blue cell viability assay, TyknuCisR; type: cell-based; details: Homo sapiens; TyknuCisR cells, 72 hours, growth/viability
Excerpt: as §1, §2

[6] = tested on: Ovary1847 OVCA cell line; assay: CellTiter-Blue cell viability assay, Ovary1847; type: cell-based; details: Homo sapiens; Ovary1847 cells, 72 hours, growth/viability
Excerpt: as §1, §2

[7] = tested on: C13 OVCA cell line; assay: CellTiter-Blue cell viability assay, C13; type: cell-based; details: Homo sapiens; C13 cells, 72 hours, growth/viability
Excerpt: as §1, §2

[8] = tested on: Dov13 OVCA cell line; assay: CellTiter-Blue cell viability assay, Dov13; type: cell-based; details: Homo sapiens; Dov13 cells, 72 hours, growth/viability
Excerpt: as §1, §2

[9] = tested on: MCAS OVCA cell line; assay: CellTiter-Blue cell viability assay, MCAS; type: cell-based; details: Homo sapiens; MCAS cells, 72 hours, growth/viability
Excerpt: as §1, §2

[10] = tested on: FUOV1 OVCA cell line; assay: CellTiter-Blue cell viability assay, FUOV1; type: cell-based; details: Homo sapiens; FUOV1 cells, 72 hours, growth/viability
Excerpt: as §1, §2

[11] = tested on: OVCAR2 OVCA cell line; assay: CellTiter-Blue cell viability assay, OVCAR2; type: cell-based; details: Homo sapiens; OVCAR2 cells, 72 hours, growth/viability
Excerpt: as §1, §2

[12] = tested on: A2780CP OVCA cell line; assay: CellTiter-Blue cell viability assay, A2780CP; type: cell-based; details: Homo sapiens, A2780C/P; A2780CP cells, 72 hours, growth/viability
Excerpt: as §1, §2

[13] = tested on: SK-OV-4 OVCA cell line; assay: CellTiter-Blue cell viability assay, SK-OV-4; type: cell-based; details: Homo sapiens; SK-OV-4 cells, 72 hours, growth/viability
Excerpt: as §1, §2

[14] = tested on: IMCC3 OVCA cell line; assay: CellTiter-Blue cell viability assay, IMCC3; type: cell-based; details: Homo sapiens; IMCC3 cells, 72 hours, growth/viability
Excerpt: as §1, §2

[15] = tested on: OVCAR4 OVCA cell line; assay: CellTiter-Blue cell viability assay, OVCAR4; type: cell-based; details: Homo sapiens, OVCAR-4; OVCAR4 cells, 72 hours, growth/viability
Excerpt: as §1, §2

[16] = tested on: Tyknu OVCA cell line; assay: CellTiter-Blue cell viability assay, Tyknu; type: cell-based; details: Homo sapiens; Tyknu cells, 72 hours, growth/viability
Excerpt: as §1, §2

[17] = tested on: OVCA433 OVCA cell line; assay: CellTiter-Blue cell viability assay, OVCA433; type: cell-based; details: Homo sapiens; OVCA433 cells, 72 hours, growth/viability
Excerpt: as §1, §2

[18] = tested on: patients with recurrent OVCA; details: 800-1250 mg/m^2/week, Phase II and III studies; cited from earlier work
[19] = tested on: CHIcisR OVCA cell line; assay: CellTiter-Blue cell viability assay, CHIcisR; type: cell-based; details: Homo sapiens; CHIcisR cells, 72 hours, growth/viability
Excerpt: as §1, §2

[20] = tested on: SK-OV-6 OVCA cell line; assay: CellTiter-Blue cell viability assay, SK-OV-6; type: cell-based; details: Homo sapiens; SK-OV-6 cells, 72 hours, growth/viability
Excerpt: as §1, §2

[21] = tested on: HeyA8 OVCA cell line; assay: CellTiter-Blue cell viability assay, HeyA8; type: cell-based; details: Homo sapiens, HEY A8; HeyA8 cells, 72 hours, growth/viability
Excerpt: as §1, §2

[22] = tested on: CAOV2 OVCA cell line; assay: CellTiter-Blue cell viability assay, CAOV2; type: cell-based; details: Homo sapiens; CAOV2 cells, 72 hours, growth/viability
Excerpt: as §1, §2

[23] = tested on: CHI OVCA cell line; assay: CellTiter-Blue cell viability assay, CHI; type: cell-based; details: Homo sapiens; CHI cells, 72 hours, growth/viability
Excerpt: as §1, §2

[24] = tested on: OVCA420 OVCA cell line; assay: CellTiter-Blue cell viability assay, OVCA420; type: cell-based; details: Homo sapiens, OVCA 420; OVCA420 cells, 72 hours, growth/viability
Excerpt: as §1, §2

[25] = tested on: TOV-21G OVCA cell line; assay: CellTiter-Blue cell viability assay, TOV-21G; type: cell-based; details: Homo sapiens, TOV21G; TOV-21G cells, 72 hours, growth/viability
Excerpt: as §1, §2

[26] = tested on: OV90 OVCA cell line; assay: CellTiter-Blue cell viability assay, OV90; type: cell-based; details: Homo sapiens, OV-90; OV90 cells, 72 hours, growth/viability
Excerpt: as §1, §2

[27] = tested on: PEO1 OVCA cell line; assay: CellTiter-Blue cell viability assay, PEO1; type: cell-based; details: Homo sapiens; PEO1 cells, 72 hours, growth/viability
Excerpt: as §1, §2

[28] = tested on: OVCAR5 OVCA cell line; assay: CellTiter-Blue cell viability assay, OVCAR5; type: cell-based; details: Homo sapiens, OVCAR-5; OVCAR5 cells, 72 hours, growth/viability
Excerpt: as §1, §2

[29] = tested on: OVCAR10 OVCA cell line; assay: CellTiter-Blue cell viability assay, OVCAR10; type: cell-based; details: Homo sapiens; OVCAR10 cells, 72 hours, growth/viability
Excerpt: as §1, §2

[30] = tested on: OVCA432 OVCA cell line; assay: CellTiter-Blue cell viability assay, OVCA432; type: cell-based; details: Homo sapiens; OVCA432 cells, 72 hours, growth/viability
Excerpt: as §1, §2

[31] = tested on: PEO4 OVCA cell line; assay: CellTiter-Blue cell viability assay, PEO4; type: cell-based; details: Homo sapiens; PEO4 cells, 72 hours, growth/viability
Excerpt: as §1, §2

[32] = tested on: M41CSR OVCA cell line; assay: CellTiter-Blue cell viability assay, M41CSR; type: cell-based; details: Homo sapiens; M41CSR cells, 72 hours, growth/viability
Excerpt: as §1, §2

[33] = tested on: TOV-112D OVCA cell line; assay: CellTiter-Blue cell viability assay, TOV-112D; type: cell-based; details: Homo sapiens, TOV112D; TOV-112D cells, 72 hours, growth/viability
Excerpt: as §1, §2

[34] = tested on: IMCC5 OVCA cell line; assay: CellTiter-Blue cell viability assay, IMCC5; type: cell-based; details: Homo sapiens; IMCC5 cells, 72 hours, growth/viability
Excerpt: as §1, §2

[35] = tested on: IGR-OV1 OVCA cell line; assay: CellTiter-Blue cell viability assay, IGR-OV1; type: cell-based; details: Homo sapiens, IGROV-1; IGR-OV1 cells, 72 hours, growth/viability
Excerpt: as §1, §2

[36] = tested on: T8 OVCA cell line; assay: CellTiter-Blue cell viability assay, T8; type: cell-based; details: Homo sapiens; T8 cells, 72 hours, growth/viability
Excerpt: as §1, §2

[37] = tested on: OV2008 OVCA cell line; assay: CellTiter-Blue cell viability assay, OV2008; type: cell-based; details: Homo sapiens; OV2008 cells, 72 hours, growth/viability
Excerpt: as §1, §2

[38] = tested on: CAOV3 OVCA cell line; assay: CellTiter-Blue cell viability assay, CAOV3; type: cell-based; details: Homo sapiens, Caov-3; CAOV3 cells, 72 hours, growth/viability
Excerpt: as §1, §2

[39] = tested on: OVCAR3 OVCA cell line; assay: CellTiter-Blue cell viability assay, OVCAR3; type: cell-based; details: Homo sapiens, OVCAR-3; OVCAR3 cells, 72 hours, growth/viability
Excerpt: as §1, §2

[40] = tested on: M41 OVCA cell line; assay: CellTiter-Blue cell viability assay, M41; type: cell-based; details: Homo sapiens; M41 cells, 72 hours, growth/viability
Excerpt: as §1, §2

[41] = tested on: BG1 OVCA cell line; assay: CellTiter-Blue cell viability assay, BG1; type: cell-based; details: Homo sapiens, BG-1; BG1 cells, 72 hours, growth/viability
Excerpt: as §1, §2

[42] = tested on: A2008 OVCA cell line; assay: CellTiter-Blue cell viability assay, A2008; type: cell-based; details: Homo sapiens; A2008 cells, 72 hours, growth/viability
Excerpt: as §1, §2

Nc1ccn([C@@H]2O[C@H](CO)[C@@H](O)C2(F)F)c(=O)n1 [Gemcitabine, 2′,2′-difluorodeoxycytidine]
IC50 [1]: 22.2 nM | IC50 [2]: 51.8 nM | IC50 [3]: 16100 nM | IC50 [4]: 273 nM | IC50 [5]: 8.5 nM | IC50 [6]: 865 nM | IC50 [7]: 418 nM | IC50 [8]: 6 nM | IC50 [9]: 56400 nM | IC50 [10]: 59400 nM | IC50 [11]: 22 nM | IC50 [12]: 366 nM | IC50 [13]: 3.3 nM | IC50 [14]: 943 nM | IC50 [15]: 655 nM | IC50 [16]: 4.6 nM | IC50 [17]: 9.9 nM | response rates [18]: up to 19% | IC50 [19]: 23.7 nM | IC50 [20]: 3500 nM | IC50 [21]: 1500 nM | IC50 [22]: 3900 nM | IC50 [23]: 269 nM | IC50 [24]: 12700 nM | IC50 [25]: 764 nM | IC50 [26]: 18.9 nM | IC50 [27]: 135 nM | IC50 [28]: 278 nM | IC50 [29]: 672 nM | IC50 [30]: 14900 nM | IC50 [31]: 536 nM | IC50 [32]: 37.4 nM | IC50 [33]: 44500 nM | IC50 [34]: 105 nM | IC50 [35]: 531 nM | IC50 [36]: 256 nM | IC50 [37]: 384 nM | IC50 [38]: 2.2 nM | IC50 [39]: 6200 nM | IC50 [40]: 39.5 nM | IC50 [41]: 30400 nM | IC50 [42]: 164 nM

Reference: patent US9809858B2, “O-glycan pathway ovarian cancer signature” (H. LEE MOFFITT CANCER CENTER AND RESEARCH INSTITUTE, INC., priority 2012, dated 2017)
